Test results from patent publication US20230108906A1, “SUBSTITUTED BICYCLIC AND TRICYCLIC UREAS AND AMIDES, ANALOGUES THEREOF, AND METHODS USING SAME” (Arbutus Biopharma Corporation, priority 2019, published 2023).
Where two headings read alike, the source gives them in different places.

Tested on: HBV rcDNA in HepDE19 cells
Assay: HepDE19 assay with bDNA quantitation of HBV rcDNA
Type: cell-based, hepatitis B virus (HBV)
Details: inhibition of rcDNA formation in HepDE19 cells (HepG2 derived), Tet-free medium, 7 day incubation, Quantigene 2.0 bDNA readout, top concentration 25 μM, read-out: DE-19bDNA EC50
Method in brief: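 Cytotoxicity run on replicate plates (5,000 cells/well, 4 days, ATP luminescence, CC50), while antiviral plates (50,000 cells/well) received compound for 7 days after tetracycline withdrawal to induce HBV replication. Top dose 25 μM, 8 points, 0.5% DMSO; rcDNA by branched-DNA assay, % inhibition fitted (4-parameter) for EC50 and EC90.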

[1] = Hepatitis B virus, HepDE19, 168 h

Row | SMILES | EC50 [nM] | EC50 [1] [nM]
1 | CN(C(=O)Nc1ccc(F)c(C(F)F)c1)C1COCc2nc(NCCO)c3cc(F)c(F)cc3c21 (single isomer, unassigned) [Compound 237, 1-(8,9-Difluoro-6-((2-hydroxyethyl)amino)-1,4-dihydro-2H-pyrano[3,4-c]isoquinolin-1-yl)-3-(3-(difluoromethyl)-4-fluorophenyl)-1-methylurea] | 2620 | 
2 | CN(C(=O)Nc1ccc(F)c(C(F)F)c1)C1COCc2nc(NCCO)c3cc(F)c(F)cc3c21 (single isomer, unassigned) [Compound 238, 1-(8,9-Difluoro-6-((2-hydroxyethyl)amino)-1,4-dihydro-2H-pyrano[3,4-c]isoquinolin-1-yl)-3-(3-(difluoromethyl)-4-fluorophenyl)-1-methylurea] | 20 | 
3 | CNc1nc2c(c3cc(F)c(F)cc13)C(N(C)C(=O)Nc1ccc(F)c(Cl)c1)COC2 (single isomer, unassigned) [Compound 241, 3-(3-Chloro-4-fluorophenyl)-1-(8,9-difluoro-6-(methylamino)-1,4-dihydro-2H-pyrano[3,4-c]isoquinolin-1-yl)-1-methylurea] | 2380 | 
4 | CNc1nc2c(c3cc(F)c(F)cc13)C(N(C)C(=O)Nc1ccc(F)c(Cl)c1)COC2 (single isomer, unassigned) [Compound 242, 3-(3-Chloro-4-fluorophenyl)-1-(8,9-difluoro-6-(methylamino)-1,4-dihydro-2H-pyrano[3,4-c]isoquinolin-1-yl)-1-methylurea] | 20 | 
5 | CN(C(=O)Nc1ccc(F)c(Cl)c1)C1COCc2nc(NCCO)c3cc(F)c(F)cc3c21 (single isomer, unassigned) [Compound 245, 3-(3-Chloro-4-fluorophenyl)-1-(8,9-difluoro-6-((2-hydroxyethyl)amino)-1,4-dihydro-2H-pyrano[3,4-c]isoquinolin-1-yl)-1-methylurea] | 4200 | 
6 | CN(C(=O)Nc1ccc(F)c(Cl)c1)C1COCc2nc(NCCO)c3cc(F)c(F)cc3c21 (single isomer, unassigned) [Compound 246, 3-(3-Chloro-4-fluorophenyl)-1-(8,9-difluoro-6-((2-hydroxyethyl)amino)-1,4-dihydro-2H-pyrano[3,4-c]isoquinolin-1-yl)-1-methylurea] | 20 | 
7 | CN(C(=O)Nc1ccc(F)c(C(F)F)c1)C1COCc2nc(NCCN)c3cc(F)c(F)cc3c21 (single isomer, unassigned) [Compound 247, 1-(6-((2-Aminoethyl)amino)-8,9-difluoro-1,4-dihydro-2H-pyrano[3,4-c]isoquinolin-1-yl)-3-(3-(difluoromethyl)-4-fluorophenyl)-1-methylurea] | 80 | 
8 | CN(C(=O)Nc1ccc(F)c(C(F)F)c1)C1COCc2nc(NCCN)c3cc(F)c(F)cc3c21 (single isomer, unassigned) [Compound 248, 1-(6-((2-Aminoethyl)amino)-8,9-difluoro-1,4-dihydro-2H-pyrano[3,4-c]isoquinolin-1-yl)-3-(3-(difluoromethyl)-4-fluorophenyl)-1-methylurea] | 3200 | 
9 | CN(C(=O)Nc1ccc(F)c(Cl)c1)C1COCc2nc(NCCN)c3cc(F)c(F)cc3c21 (single isomer, unassigned) [Compound 249] | 8300 | 
10 | CN(C(=O)Nc1ccc(F)c(Cl)c1)C1COCc2nc(NCCN)c3cc(F)c(F)cc3c21 (single isomer, unassigned) [Compound 250] | 270 | 
11 | CC(C)CN(C(=O)Nc1ccc(F)c(Cl)c1)C1CCCc2[nH]c(=O)cc(C(F)(F)F)c21 (stereo not shown) [Compound 1, 3-(3-Chloro-4-fluorophenyl)-1-isobutyl-1-(2-oxo-4-(trifluoromethyl)-1,2,5,6,7,8-hexahydroquinolin-5-yl)urea] |  | 520
12 | CN(C(=O)Nc1ccc(F)c(Cl)c1)C1CCCc2[nH]c(=O)cc(C(F)(F)F)c21 (stereo not shown) [Compound 2, 3-(3-Chloro-4-fluorophenyl)-1-methyl-1-(2-oxo-4-(trifluoromethyl)-1,2,5,6,7,8-hexahydroquinolin-5-yl)urea] |  | 1500
13 | O=C(Nc1ccc(F)c(Cl)c1)N(CCCO)C1CCCc2[nH]c(=O)cc(C(F)(F)F)c21 (stereo not shown) [Compound 3, 3-(3-Chloro-4-fluorophenyl)-1-(3-hydroxypropyl)-1-(2-oxo-4-(trifluoromethyl)-1,2,5,6,7,8-hexahydroquinolin-5-yl)urea] |  | 1700
14 | CC(C)CN(C(=O)Nc1ccc(F)c(Cl)c1)C1CCc2[nH]c(=O)cc(C(F)(F)F)c21 (stereo not shown) [Compound 4, 3-(3-Chloro-4-fluorophenyl)-1-isobutyl-1-(2-oxo-4-(trifluoromethyl)-2,5,6,7-tetrahydro-1H-cyclopenta[b]pyridin-5-yl)urea] |  | 910
15 | CC(C)CN(C(=O)Nc1ccc(F)c(F)c1)C1CCc2[nH]c(=O)cc(C(F)(F)F)c21 (stereo not shown) [Compound 5, 3-(3,4-Difluorophenyl)-1-isobutyl-1-(2-oxo-4-(trifluoromethyl)-2,5,6,7-tetrahydro-1H-cyclopenta[b]pyridin-5-yl)urea] |  | 1100
16 | O=C(Nc1ccc(F)c(Cl)c1)N(CCCO)C1CCCc2[nH]c(=O)c3ccccc3c21 (stereo not shown) [Compound 7, 3-(3-Chloro-4-fluorophenyl)-1-(3-hydroxypropyl)-1-(6-oxo-1,2,3,4,5,6-hexahydrophenanthridin-1-yl)urea] |  | 750

Row | SMILES | EC50 [nM] | EC50 [1] [nM]
17 | CC(C)CN(C(=O)Nc1ccc(F)c(Cl)c1)C1CCCc2[nH]c(=O)c3ccccc3c21 (stereo not shown) [Compound 8, 3-(3-Chloro-4-fluorophenyl)-1-isobutyl-1-(6-oxo-1,2,3,4,5,6-hexahydrophenanthridin-1-yl)urea] |  | 470
18 | CN(C(=O)Nc1ccc(F)c(Cl)c1)C1CCCc2[nH]c(=O)c3cc(F)ccc3c21 (stereo not shown) [Compound 9, 3-(3-Chloro-4-fluorophenyl)-1-(8-fluoro-6-oxo-1,2,3,4,5,6-hexahydrophenanthridin-1-yl)-1-methylurea] |  | 30
19 | CC(C)CN(C(=O)Nc1ccc(F)c(Cl)c1)C1CCCc2[nH]c(=O)c3cc(F)ccc3c21 (stereo not shown) [Compound 10, 3-(3-Chloro-4-fluorophenyl)-1-(8-fluoro-6-oxo-1,2,3,4,5,6-hexahydrophenanthridin-1-yl)-1-isobutylurea] |  | 60
20 | O=C(Nc1ccc(F)c(Cl)c1)N(CCCO)C1CCCc2[nH]c(=O)c3cc(F)ccc3c21 (stereo not shown) [Compound 11, 3-(3-Chloro-4-fluorophenyl)-1-(8-fluoro-6-oxo-1,2,3,4,5,6-hexahydrophenanthridin-1-yl)-1-(3-hydroxypropyl)urea] |  | 60
21 | CN(C(=O)Nc1ccc(F)c(Cl)c1)C1CCc2[nH]c(=O)c3ccccc3c21 (stereo not shown) [Compound 12, 3-(3-Chloro-4-fluorophenyl)-1-methyl-1-(5-oxo-2,3,4,5-tetrahydro-1H-cyclopenta[c]isoquinolin-1-yl)urea] |  | 90
22 | CC(C)CN(C(=O)Nc1ccc(F)c(Cl)c1)C1CCc2[nH]c(=O)c3ccccc3c21 (stereo not shown) [Compound 13, 3-(3-Chloro-4-fluorophenyl)-1-isobutyl-1-(5-oxo-2,3,4,5-tetrahydro-1H-cyclopenta[c]isoquinolin-1-yl)urea] |  | 1300
23 | O=C(Nc1ccc(F)c(Cl)c1)N(CCCO)C1CCc2[nH]c(=O)c3ccccc3c21 (stereo not shown) [Compound 14, 3-(3-Chloro-4-fluorophenyl)-1-(3-hydroxypropyl)-1-(5-oxo-2,3,4,5-tetrahydro-1H-cyclopenta[c]isoquinolin-1-yl)urea] |  | 100
24 | CN(C(=O)Nc1ccc(F)cc1)C1CCCc2[nH]c(=O)c3cc(F)c(F)cc3c21 (stereo not shown) [Compound 19, 1-(8,9-Difluoro-6-oxo-1,2,3,4,5,6-hexahydrophenanthridin-1-yl)-3-(4-fluorophenyl)-1-methylurea] |  | 160
25 | CN(C(=O)Nc1ccc(F)c(Cl)c1)C1CCCc2[nH]c(=O)c3cc(F)cc(F)c3c21 (stereo not shown) [Compound 20, 3-(3-Chloro-4-fluorophenyl)-1-(8,10-difluoro-6-oxo-1,2,3,4,5,6-hexahydrophenanthridin-1-yl)-1-methylurea] |  | 510
26 | CN(C(=O)Nc1ccc(F)c(Cl)c1)C1CCCCc2[nH]c(=O)c3ccccc3c21 (stereo not shown) [Compound 21, 3-(3-Chloro-4-fluorophenyl)-1-methyl-1-(5-oxo-6,7,8,9,10,11-hexahydro-5H-cyclohepta[c]isoquinolin-11-yl)urea] |  | 150
27 | O=C(Nc1ccc(F)c(Cl)c1)N(CCCO)C1CCCCc2[nH]c(=O)c3ccccc3c21 (stereo not shown) [Compound 22, 3-(3-Chloro-4-fluorophenyl)-1-(3-hydroxypropyl)-1-(5-oxo-6,7,8,9,10,11-hexahydro-5H-cyclohepta[c]isoquinolin-11-yl)urea] |  | 600
28 | CN(C(=O)Nc1ccc(F)c(Cl)c1)C1COCc2[nH]c(=O)c3cc(F)cc(F)c3c21 (stereo not shown) [Compound 25, 3-(3-Chloro-4-fluorophenyl)-1-(8,10-difluoro-6-oxo-1,4,5,6-tetrahydro-2H-pyrano[3,4-c]isoquinolin-1-yl)-1-methylurea] |  | 290
29 | CN(C(=O)Nc1ccc(F)c(Cl)c1)C1CC(C)(C)Cc2[nH]c(=O)c3ccccc3c21 (stereo not shown) [Compound 27, 3-(3-Chloro-4-fluorophenyl)-1-(3,3-dimethyl-6-oxo-1,2,3,4,5,6-hexahydrophenanthridin-1-yl)-1-methylurea] |  | 12000
30 | CN(C(=O)Nc1ccc(F)c(Cl)c1)C1CCCc2[nH]c(=O)c3c(F)c(F)ccc3c21 (stereo not shown) [Compound 28, 3-(3-Chloro-4-fluorophenyl)-1-(7,8-difluoro-6-oxo-1,2,3,4,5,6-hexahydrophenanthridin-1-yl)-1-methylurea] |  | 440
31 | CN(C(=O)Nc1cc(F)cc(Cl)c1)C1COCc2[nH]c(=O)c3ccccc3c21 (stereo not shown) [Compound 29, 3-(3-Chloro-5-fluorophenyl)-1-methyl-1-(6-oxo-1,4,5,6-tetrahydro-2H-pyrano[3,4-c]isoquinolin-1-yl)urea] |  | 120
